According to patent US7300946B2, “N-(substituted arylmethyl)-4-(disubstituted methyl) piperidines and pyridines” (Bayer CropScience AG, priority 2002, dated 2007):

Tested on: tobacco budworm (Heliothis virescens [Fabricius])
Experiment: surface-treated diet test against the tobacco budworm
Type: in vivo
Settings: tobacco budworm second instar larvae, 0.25 millimoles of candidate insecticide on the surface of the diet, five-day exposure; for Percent Mortality: compared to total number of insects infested; for Percent Growth Inhibition: inhibition of insect weight relative to untreated controls
Procedure, shortened: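 Wheat germ artificial diet surface-treated with 40 µL of 50 mM DMSO stock diluted 1:7 in 1:1 water/acetone (0.25 millimolar on diet), or sub-multiples for rate tests. One second-instar larva per well, 25° C, 60% RH, 5 days; percent weight inhibition vs DMSO controls and percent mortality.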

| SMILES | Percent Mortality (surface-treated diet) | Percent Growth Inhibition (surface-treated diet) | Percent Mortality | Percent Growth Inhibition |
| --- | --- | --- | --- | --- |
| CCn1nnc(-c2ccc(CN3CCC(C(OCc4ccc(C(F)(F)F)cc4)c4ccc(OC(F)(F)F)cc4)CC3)cc2)n1 (centres unmarked) [Compound 304] | 100% | 95% |  |  |
| [O-][N+]1(Cc2ccc(Oc3ccccn3)cc2)CCC(C(Oc2ccc(C(F)(F)F)cn2)c2ccc(C(F)(F)F)cc2)CC1 (centres unmarked) [Compound 442] | 100% | 100% |  |  |
| CCCOc1ccc(CN2CCC(C(OC(=O)Nc3cccc(C(F)(F)F)c3)c3ccc(Cl)c(Cl)c3)CC2)cc1 (centres unmarked) [Compound 483] | 100% | 100% |  |  |
| O=C(Nc1cc(F)cc(F)c1)OC(C1=CC[N+]([O-])(Cc2ccc(Oc3ncccn3)cc2)CC1)c1ccc(C(F)(F)F)cc1 (centres unmarked) [Compound 787] |  |  | 100% | 100% |
| CCON=Cc1ccc(CN2CCC(C(OC(=O)Nc3cccc(F)c3)c3ccc(Cl)cc3)CC2)cc1 (centres unmarked) [Compound 524] | 100% | 100% |  |  |
| FC(F)(F)c1ccc(C(=C2CCN(Cc3ccc(Nc4ccccn4)cc3)CC2)c2ccc(C(F)(F)F)cc2)cc1 [Compound 811] |  |  | 100% | 100% |
| C=CCOC(=O)Nc1ccc(CN2CCC(=C(c3ccc(C(F)(F)F)cc3)c3ccc(C(F)(F)F)cc3)CC2)cc1 [Compound 797] |  |  | 100% | 100% |
| O=C(Nc1cc(F)cc(F)c1)OC(c1ccc(C(F)(F)F)cc1)C1CCN(Cc2ccc(Oc3c(F)cccc3F)cc2)CC1 (centres unmarked) [Compound 548] | 100% | 100% |  |  |
| O=C(Nc1cc(F)cc(F)c1)OC(c1ccc(Cl)cc1)C1CCN(Cc2ccc(Oc3ccccn3)cc2)CC1 (centres unmarked) [Compound 631] | 100% | 100% |  |  |
| CCCOc1ccc(CN2CCC(C(OC(=O)Nc3ccc(Cl)cc3)c3ccc(F)cc3)CC2)cc1 (centres unmarked) [Compound 475] | 100% | 100% |  |  |
| CCn1nnc(-c2ccc(CN3CCC(C(OC(=O)Nc4cc(Cl)cc(Cl)c4)c4ccc(C(F)(F)F)cc4)CC3)cc2)n1 (centres unmarked) [Compound 284] | 100% | 100% |  |  |
| O=C(Nc1cc(F)cc(F)c1)OC(c1ccc(F)cc1)C1CCN(Cc2ccc(Oc3ccccn3)cc2)CC1 (centres unmarked) [Compound 641] | 100% | 100% |  |  |
| FC(F)(F)c1ccc(NC(=S)OC(c2ccc(C(F)(F)F)cc2)C2CCN(Cc3ccc(Oc4ccccn4)cc3)CC2)cc1 (centres unmarked) [Compound 693] | 100% | 100% |  |  |
| CCCOc1ccc(CN2CCC(C(OC(=O)Nc3ccc(C(F)(F)F)cc3)c3ccc(Cl)cc3)CC2)cc1 (centres unmarked) [Compound 473] | 100% | 100% |  |  |
| CC(C)COC(=O)Nc1ccc(CN2CCC(=C(c3ccc(C(F)(F)F)cc3)c3ccc(C(F)(F)F)cc3)CC2)cc1 [Compound 59] | 0% | 59% |  |  |
| COC(=O)c1cccc(NC(=O)OC(c2ccc(Cl)cc2)C2CCN(Cc3ccc(Oc4ccccn4)cc3)CC2)c1 (centres unmarked) [Compound 638] | 100% | 100% |  |  |
| [O-][N+]1(Cc2ccc(Oc3ccc(Cl)nn3)cc2)CCC(=C(c2ccc(C(F)(F)F)cc2)c2ccc(C(F)(F)F)cc2)CC1 (centres unmarked) [Compound 855] |  |  | 100% | 100% |
| CC(C)NC(=O)OC(c1ccc(C(F)(F)F)cc1)C1CCN(Cc2ccc(Oc3ccccn3)cc2)CC1 (centres unmarked) [Compound 429] | 100% | 100% |  |  |
| CCn1nnc(-c2ccc(CN3CCC(C(OC(=O)Nc4cc(F)cc(F)c4)c4ccc(C)cc4)CC3)cc2)n1 (centres unmarked) [Compound 598] | 100% | 100% |  |  |

| SMILES | Percent Mortality (surface-treated diet) | Percent Growth Inhibition (surface-treated diet) | Percent Mortality | Percent Growth Inhibition |
| --- | --- | --- | --- | --- |
| CC(C)OC(=O)c1ccc(CN2CCC(=C(c3ccc(C(F)(F)F)cc3)c3ccc(C(F)(F)F)cc3)CC2)cc1 [Compound 51] | 0% | 26% |  |  |
| CCn1nnc(-c2ccc(CN3CCC(C(OC(=O)Nc4cccc(C(F)(F)F)c4)c4cccc(F)c4)CC3)cc2)n1 (centres unmarked) [Compound 586] | 100% | 100% |  |  |
| FC(F)(F)c1ccc(C(Oc2cc(C(F)(F)F)ccn2)C2CCN(Cc3ccc(Oc4ccc(Cl)nn4)cc3)CC2)cc1 (centres unmarked) [Compound 441] | 100% | 100% |  |  |
| FC(F)(F)c1ccc(C(Oc2ccc(Cl)nn2)C2CCN(Cc3ccc(Oc4ccccn4)cc3)CC2)cc1 (centres unmarked) [Compound 452] | 67% | 100% |  |  |
| O=C(Nc1ccncc1)OC(c1ccc(C(F)(F)F)cc1)C1CCN(Cc2ccc(Oc3ccccn3)cc2)CC1 (centres unmarked) [Compound 450] | 0% | 62% |  |  |
| CCN(C(=O)OC(c1ccc(Cl)cc1)C1CCN(Cc2ccc(Oc3ccccn3)cc2)CC1)c1ccc(C(F)(F)F)cc1 (centres unmarked) [Compound 637] | 100% | 100% |  |  |
| CC(=O)Nc1ccc(CN2CCC(C(OC(=O)Nc3ccc(Cl)cc3)c3ccc(C(F)(F)F)cc3)CC2)cc1 (centres unmarked) [Compound 494] | 0% | 77% |  |  |
| CCCOc1ccc(CN2CCC(C(OC(=O)Nc3ccc(Cl)cc3)c3ccc(C(F)(F)F)cc3)CC2)cc1 (centres unmarked) [Compound 490] | 100% | 100% |  |  |
| CCn1nnc(-c2ccc(CN3CCC(C(OC(=O)Nc4ccc(Cl)cc4Cl)c4ccc(C(F)(F)F)cc4)CC3)cc2)n1 (centres unmarked) [Compound 280] | 100% | 100% |  |  |
| CCn1nnc(-c2ccc(CN3CCC(C(OC(=O)Nc4cccc(Br)c4)c4ccc(C(F)(F)F)cc4)CC3)cc2)n1 (centres unmarked) [Compound 268] | 100% | 100% |  |  |
| O=C(Nc1ccc(Cl)nc1)OC(c1ccc(C(F)(F)F)cc1)C1CCN(Cc2ccc(Oc3ccccn3)cc2)CC1 (centres unmarked) [Compound 445] | 100% | 100% |  |  |
| Cn1nnc(-c2ccc(C[N+]3([O-])CCC(C(OC(=O)Nc4ccc(C(F)(F)F)cc4)c4ccc(OC(F)(F)F)cc4)CC3)cc2)n1 (centres unmarked) [Compound 402] | 100% | 100% |  |  |
| CCON=Cc1ccc(CN2CCC(C(OC(=O)Nc3cc(F)cc(F)c3)c3ccc(Cl)cc3)CC2)cc1 (centres unmarked) [Compound 525] | 100% | 100% |  |  |
| O=C(Nc1ccc(C(F)(F)F)cc1)OC(c1cccc(C(F)(F)F)c1)C1CCN(Cc2ccc(Oc3ccccn3)cc2)CC1 (centres unmarked) [Compound 656] | 100% | 100% |  |  |
| O=C(Nc1cc(Cl)cc(Cl)c1)OC(c1ccc(C(F)(F)F)cc1)C1CCN(Cc2ccc(Oc3ccccn3)cc2)CC1 (centres unmarked) [Compound 232] | 100% | 100% |  |  |
| O=C(Nc1ccc(C(F)(F)F)cc1)OC(c1ccc(Cl)c(Cl)c1)C1CCN(Cc2ccc(Oc3ncccn3)cc2)CC1 (centres unmarked) [Compound 725] |  |  | 100% | 100% |
| [O-][N+]1(Cc2ccc(Oc3ncccn3)cc2)CCC(=C(c2ccc(Cl)c(Cl)c2)c2ccc(Cl)c(Cl)c2)CC1 (centres unmarked) [Compound 849] |  |  | 100% | 100% |
| CCn1nnc(-c2ccc(CN3CCC(C(OC(=O)Nc4ccc(C(F)(F)F)cc4)c4ccccc4Cl)CC3)cc2)n1 (centres unmarked) [Compound 571] | 100% | 100% |  |  |
